# ChEMBL document CHEMBL3576857, “Biosynthetic products from a nearshore-derived gram-negative bacterium enable reassessment of the kailuin depsipeptides” (J Nat Prod, 2015)
# Calls of active or inactive are those of the source. The calls are words filed in the database; no cut-off is given here.
# Legend:
# Type in all cases: functional, cell-based
# HCT-116 = assay: Cytotoxicity against human HCT116 cells
# MCF7 = assay: Cytotoxicity against human MCF7 cells
# HeLa = assay: Cytotoxicity against human HeLa cells assessed as effect on phenotypic features by automated microscopy and image analysis
SMILES,IC50 (HCT-116),IC50 (MCF7),Activity (HeLa)
CC[C@H](C)[C@@H]1NC(=O)[C@@H](CC(C)C)NC(=O)[C@H]([C@@H](C)O)NC(=O)[C@H](CO)NC(=O)[C@@H](CC(C)C)NC(=O)CCC(=O)C1=O,> 1000 µM,,
CC[C@H](C)[C@@H]1NC(=O)[C@@H](CC(C)C)NC(=O)[C@H]([C@@H](C)O)NC(=O)[C@H](CO)NC(=O)[C@@H](CC(C)C)NC(=O)CCNC1=O,> 1000 µM,,
CC[C@H](C)[C@@H]1NC(=O)[C@@H](CC(C)C)NC(=O)[C@H]([C@@H](C)O)NC(=O)[C@H](CO)NC(=O)[C@@H](CC(C)C)NC(=O)C[C@@H](CCCCCCC(C)C)OC1=O,50 µM,6 µM,
CCCCCC/C=C\CCC[C@@H]1CC(=O)N[C@H](CC(C)C)C(=O)N[C@@H](CO)C(=O)N[C@@H]([C@@H](C)O)C(=O)N[C@H](CC(C)C)C(=O)N[C@@H]([C@@H](C)CC)C(=O)O1,28 µM,4 µM,Active
CCCCCCC[C@@H]1CC(=O)N[C@H](CC(C)C)C(=O)N[C@@H](CO)C(=O)N[C@@H]([C@@H](C)O)C(=O)N[C@H](CC(C)C)C(=O)N[C@@H]([C@@H](C)CC)C(=O)O1,,4 µM,
CCCCCCCCCC[C@@H]1CC(=O)N[C@H](CC(C)C)C(=O)N[C@@H](CO)C(=O)N[C@@H]([C@@H](C)O)C(=O)N[C@H](CC(C)C)C(=O)N[C@@H]([C@@H](C)CC)C(=O)O1,32 µM,,
CC[C@H](C)[C@@H]1NC(=O)[C@@H](CC(C)C)NC(=O)[C@H]([C@@H](C)O)NC(=O)[C@H](CO)NC(=O)[C@@H](CC(C)C)NC(=O)C[C@@H](CCCCCCCCC(C)C)OC1=O,17 µM,,
CCCCCCCCCCC[C@@H]1CC(=O)N[C@H](CC(C)C)C(=O)N[C@@H](CO)C(=O)N[C@@H]([C@@H](C)O)C(=O)N[C@H](CC(C)C)C(=O)N[C@@H]([C@@H](C)CC)C(=O)O1,18 µM,,Active
CCCCCCCCC[C@@H]1CC(=O)N[C@H](CC(C)C)C(=O)N[C@@H](CO)C(=O)N[C@@H]([C@@H](C)O)C(=O)N[C@H](CC(C)C)C(=O)N[C@@H]([C@@H](C)CC)C(=O)O1,22 µM,3 µM,
